Experimental data from paper PMC3927586, “Protein kinase C-delta inactivation inhibits the proliferation and survival of cancer stem cells in culture and in vivo” (BMC Cancer, 2014).

What was measured:
Assay type in all cases: cell-based, human
MCF7 cells = test: Cell proliferation (MTT) of adherent MCF7 cells; conditions: for concentration at which effect on cell number reached significance: MCF7, MTT, 24 hr, p ≤ 0.02; for concentration required to repress growth by more than 80%: MCF7 adherent population, MTT
Protocol: (§1) Cell proliferation was assessed using an MTT [3-(4,5-dimethylthiazol-2-yl)-2,5-diphenyltetrazolium bromide] assay (Roche, Mannheim, Germany). The number of viable cells growing in a single well on a 96-well microtiter plate was estimated by adding 10 μl of MTT solution (5 mg/ml in phosphate-buffered saline [PBS]). After 4 h of incubation at 37°C, the stain was diluted with 100 μl of dimethyl sulfoxide. The optical densities were quantified at a test wavelength of 570 nm and a reference wavelength of 690 nm on a multiwell spectrophotometer. In some assays, MTS was used as substrate (Promega, Madison, WI), and the absorbance of the product was monitored at 490 nm. Cell enumeration was carried out using a hemocytometer, and viable cells identified by trypan blue exclusion.
Figure 4 Effects of PKCδ inhibitors on human tumor cell spheroid formation. (A) Hs578T and MCF7 were plated under adherent or non-adherent conditions. Tumor spheroids and adherent cells were collected at 96 hr, stained for CD24 and CD44, and analyzed by flow cytometry. (B) Hs578T, MCF7, breast cancer stem cells (BCSC) and pancreatic cancer stem cells (PCSC) were plated in tumor spheroid media, in the presence of rottlerin, BJE6-106, or DMSO (Control). Tumor spheroids were enumerated at 96 hr, and normalized to the number of spheroids in the control cultures (assigned an arbitrary value of 100%). p values for comparison between vehicle and rottlerin or BJE6-106 effects were significant (p≤0.001). Photographs are of representative areas of the culture plates. (C) MCF7 cells were exposed BJE6-106 or to rottlerin at the indicated concentrations. The corresponding equivalent volume of solvent (DMSO) was used as a vehicle control (Vehicle). After 24, 48 and 72 hr of exposure, cell mass was evaluated by MTT assay. Control values were normalized to 100%. p values for comparison between vehicle and rottlerin effects on cell number at 24 hr reached significance at 5 μM, and for BJE6-106 at 0.5 μM (p ≤ 0.02), and were significant for all concentrations tested at 48 and 72 hr time points. (D) Hs578T cells were exposed to vehicle or BJE6-106 (1 μM) for 6, 12, 24, 48 or 96 hr. Viable cells were enumerated and re-plated in media without BJE6-206, and spheroid numbers were quantitated 96 hr later. p values for comparison between vehicle and BJE6-106 effects on spheroid number were significant after 6 hr of exposure (p≤0.02), and remained significant at all time points thereafter. Error bars represent SEM.

MCF 10A cells = test: Cell proliferation (MTT) of non-transformed breast epithelial cells; conditions: for concentration at which effect on MCF 10A cell number reached significance: 48 hr, p < 0.05; for IC50: Homo sapiens, MCF-10A, 72 hr, read-out: IC50 for the parental MCF 10A cells
Protocol: as §1
Figure 5 Effects of PKCδ inhibitors on growth and spheroid formation in non-transformed and transformed human breast epithelial cells. MCF 10A cells and cells from the derived tumorigenic line MCF 10C (also called M3), were grown to 80% confluence in 96-well plates and then exposed to rottlerin at concentrations ranging from 1 to 20 μM (A) or to BJE6-106 at concentrations ranging from 0.1 to 20 μM (B). The corresponding equivalent volume of solvent (DMSO) was used as a vehicle control (Vehicle). After 24, 48 and 72 hr of exposure, cell mass was evaluated by MTT assay. Control (vehicle) values were normalized to 100%. Error bars represent SEM. p values for comparison between vehicle and PKCδ inhibitors on MCF 10A cell number only reached significance (p < 0.05) at 48 hr at 20 μM for rottlerin, and at 1 μM for BJE6-106. In contrast, significant effects of the inhibitors on the MCF 10C cells were observed as early as 24 hr for rottlerin (at 5 μM) and for BJE6-106 (at 0.1 μM). (C) MCF 10A and MCF 10C cells were plated at 10,000 cells per well in tumor spheroid media, and spheroid formation was assessed at days 10 and 21. Representative photographs are shown. (D) MCF 10C cells were plated at 10,000 cells per well in tumor spheroid media, in the presence of rottlerin (5 μM), or BJE6-106 (1 μM or 5 μM), or DMSO vehicle (Control). Tumor spheroids were enumerated at 10 days. Representative photographs are shown. (E) Spheroid numbers were normalized to the number of spheroids in the control cultures (assigned an arbitrary value of 100%) and plotted. Error bars represent SEM. p values for comparison between vehicle and rottlerin or BJE6-106 effects on spheroid number were significant (p < 0.001).

MiaPaCa2 = test: Tumor spheroid growth, MiaPaCa2 pancreatic cancer; conditions: p < 0.001

SMILES | concentration at which effect on cell number reached significance (MCF7 cells) [µM] | concentration required to repress growth by more than 80% (MCF7 cells) [µM] | concentration at which effect on MCF 10A cell number reached significance (MCF 10A cells) [µM] | IC50 (MCF 10A cells) [µM] | inhibition of tumor spheroid growth, MiaPaCa2 (MiaPaCa2; BJE6-106 at 0.5-1.0 μM) [%] | inhibition at 10 µM (MiaPaCa2; Homo sapiens, MIA PaCa-2, rottlerin at 10 μM) [%]
CC1(C)C=Cc2cc(CCn3c4ccccc4c4ccccc43)cc(C=O)c2O1 [BJE6-106, 6-(2-(9H-carbazol-9-yl)ethyl)-2,2-dimethyl-2H-chromene-8-carbaldehyde] | 0.5 | > 1 | 1 | > 20 | > 97 | 
CC(=O)c1c(O)c(C)c(O)c(Cc2c(O)c3c(c(C(=O)/C=C/c4ccccc4)c2O)OC(C)(C)C=C3)c1O [rottlerin, Rottlerin, reference compound] | 5 | > 10 | 20 | > 20 |  | > 97
